The text below walks through data of US20080200412A1, “Astrocyte Elevated Gene-1 And Its Promoter In Treatments For Neurotoxicity And Malignancy” (priority 2005, published 2008).

For data set [1], the system named is AEG-1. Kind of data set: Western blot of AEG-1 protein after siRNA transfection. Particulars: U87-MG and U251-MG cells transiently transfected, 24 hours. It counts as cell-based, human. Here is the method:
Western blotting and immunofluorescence microscopy. Whole cell lysates were prepared and Western blotting was performed as described (17). Antibodies used in specific experiments are described in the text or in corresponding figure legends. For immunofluorescence microscopy, IM-PHFA, grown on chamber slides, were probed with anti-AEG-1 and anti-calreticulin primary antibodies and FITC-conjugated anti-chicken and rhodamine-conjugated anti-rabbit secondary antibodies, respectively. Alternatively, IM-PHFA were loaded with Mito-Tracker (Molecular probes) and then immunocytochemistry was performed using anti-AEG-1 antibody and rhodamine-conjugated anti-chicken secondary antibody. Cells were visualized using a Zeiss confocal laser scanning microscope (LSM510) and a 100× objective.
Construction of AEG-1 siRNA. The sequence (5′ AGCAGCCACCAGAGATTGA 3′) (SEQ ID NO:3) used for AEG-1 silencing corresponds to the 449-467 nucleotides of the AEG-1 ORF. The siRNA was constructed with Silencer™ siRNA kit according to manufacturer's protocol. A control scrambled siRNA was used to determine specificity of the inhibition and the sequence 5′ GGGTCGTCTA TAGGGATCGAT 3′(SEQ ID NO:10)
Effect of inhibition of AEG-1 on anchorage independent growth of malignant glioma cells. U87-MG and U251-MG cells were transiently transfected with siRNA for the AEG-1 gene and control scrambled siRNA using Lipofectamine. […]
A general note: In western blotting, separated proteins are transferred to a membrane and probed.

Data set [2] deals with U251-MG cells. Kind of data set: Matrigel invasion assay (Transwell). It is filed as cell-based, human. Conditions: 72 h, vs control scrambled siRNA. The procedure:
(§1) Matrigel invasion assay. Cell were cultured, transfected and harvested essentially as described above for soft-agar colony formation assays. Cells were mixed with Matrigel and plated on […] pore-size tissue culture inserts. After 72 h or a pre-optimized time depending on the cell line, Matrigel was removed and the inserts were stained with Geimsa stain to enumerate the number of cells that had passed through the tissue culture insert membrane.
(§2) Effect of inhibition of AEG-1 on invasiveness of malignant glioma cells. U87-MG and U251-MG cells were transiently transfected with siRNA for AEG-1 and with control scrambled siRNA using Lipofectamine. 24 hours after transfection cells were seeded in the upper compartment of a Transwell™ unit (Becton Dickinson) and then incubated for 72 h at 37° C. The lower compartment contained 0.5 ml of DMEM and 5% FBS. At the end of the invasion assay, the filters were removed, fixed, and stained.

Data set [3] deals with U87-MG cells. Kind of data set: Matrigel invasion assay (Transwell). It counts as cell-based, human. Conditions: 72 h, vs control scrambled siRNA. The procedure: as §1, §2
The test system of data set [4] is U251-MG cells. In words: Soft agar cloning efficiency. Particulars: transient transfection vs control scrambled siRNA. It counts as cell-based, human. Here is the method: (§3) Soft agar colony formation and Matrigel invasion assay. FM-516SV cells (2×10^5 cells/6-cm plate) plated the previous day were transfected with either pcDNA3.1, pcDNA3.1 AEG-1, T24 Ha-ras (20 μg each), or AEG-1/T24 Ha-ras (10+10 μg). Two days later, transfected cells were harvested by trypsinization and re-plated in soft agar (0.4%) overlaying 0.8% base agar. Two weeks later, colonies over ˜50 cells in soft agar were identified microscopically and counted. Soft agar colony formation assay was also performed with FM-516SV AEG-1 stable transfectants established by transfection of pcDNA3.1 AEG-1 and T24 Ha-ras and G418 selection.
(§4) Effect of inhibition of AEG-1 on anchorage independent growth of malignant glioma cells. U87-MG and U251-MG cells were transiently transfected with siRNA for the AEG-1 gene and control scrambled siRNA using Lipofectamine. 24 hours after transfection 1×10^5 cells from the transfection mixture were replated to determine agar cloning efficiency. In parallel, cell extracts were prepared for western blot analysis.

The subject of data set [5] is U87-MG cells. Kind of data set: Soft agar cloning efficiency. Particulars: transient transfection vs control scrambled siRNA. It is filed as cell-based, human. Here is the method:
as §3, §4

Data set [6] deals with AEG-1 promoter. Kind of data set: AEG-1 promoter luciferase reporter in primary human fetal astrocytes. It counts as cell-based. Particulars: PHFA, 0.1 to 100 μM. The text has this:
(§5) Construction of plasmids: The full-length AEG-1 promoter DNA used in this analysis has a 3′ boundary 1 base-pair 5′ to the translation initiation site (ATG codon) of the AEG-1 gene (designated as nucleotide 1 in FIG. 7; SEQ ID NO:2) and extends 2759 bp upstream. The genomic DNA region corresponding to the AEG-1 promoter was isolated by PCR using the PCRx Enhancer System (Invitrogen, Carlsbad, Calif.) with forward primer: 5′-[…] -3′ (KpnI site underlined) (SEQ ID NO:4) and reverse primer: 5′-[…]-3′ (XhoI site underlined) 9SEQ ID NO:5). PCR conditions were as follows: Denaturation 95° C., 30 sec; annealing 55° C., 30 sec and extension 68° C., 3 min, repeated for 30 cycles. This region of genomic DNA was cloned into the luciferase reporter pGL-3 basic (Promega, Madison, Wis.) using restriction sites in KpnI and XhoI in the plasmid polylinker.
(§6) Other mediators of AEG-1 promoter activity. The HIV-Tat (Simm et al Virology 2002;294(1);1-12) and Nef (Lathi et al., Virology. 2003; 310(1):190-196) gene products were tested on the full length AEG-1 promoter at a plasmid expression vector concentration range of 50 to 800 ng/transfection point (FIG. 16). […] Thus, the AEG-1 promoter appears to be responsive to protein products produced by HIV infection of cells.
(In general: Reporter assays use an easily measured gene product as a stand-in for the process of interest.)

Data set [7] relates to EAAT2 promoter. Conditions: PHFA; cited from earlier work.
In data set [8] the test system is AEG-1. Conditions: PHFA, by 7-days; cited from earlier work.
For data set [9], the system named is AEG-1 promoter. In words: AEG-1 promoter luciferase reporter co-transfected with HIV Tat or Nef expression constructs. Particulars: plasmid expression vector 50 to 800 ng/transfection point. It counts as cell-based, human.
Description: as §5, §6

In data set [10] the test system is AEG-1 promoter. In words: AEG-1 promoter luciferase reporter in THV/THR astrocytes. It is filed as cell-based, human.
Description: as §5
(§7) Transient transfection and luciferase assay. CREF, CREF-ras, FM516, FM516-ras, THV and THR cells were plated on 24-well plates one day prior to transfection. […] Luciferase activity was measured and normalized against β-galactosidase activity produced by a co-transfected vector as described (17). […]
(§8) Effect of inhibition of PI3 Kinase, MEK kinase and p38 MAP kinase on AEG-1 promoter activity. Signal transduction pathways impinging on or directly downstream of the RAS pathway were analyzed to determine their effect on AEG-1 promoter activity (FIGS. 13 A-E). […]

Data set [11] concerns AEG-1 promoter. In words: AEG-1 promoter luciferase reporter in CREF and CREF-ras fibroblasts. It is filed as cell-based, rat.
Description: as §5, §7, §8

The subject of data set [12] is glutamate transporter (EAAT2). Particulars: astrocytes; cited from earlier work.
Data set [13] has as its system AEG-1 promoter. In words: AEG-1 promoter luciferase reporter in C2 and C10 cell lines. It counts as cell-based, human.
Description: as §5
Cell treatment with inhibitors. The PI3 kinase inhibitor LY294002, MEK inhibitor PD 98059 and p38 MAP Kinase inhibitor SB 203580 were used to treat cells at the indicated concentration and to determine the effect of inhibition of the respective pathway on AEG-1 promoter activity using the AEG-1 luciferase reporter.
The colorectal cancer cell line HCT116 which is mutated in the k-RAS gene was also tested for AEG-1 promoter activity in addition to two related cell lines. […]

Turning to “siRNA for AEG-1: siRNA with sequence 5′ AGCAGCCACCAGAGATTGA 3′ (SEQ ID NO:3), corresponds to nucleotides 449-467 of the AEG-1 ORF (listed as DNA, chemistry not given here)”, the “AEG-1 protein knock down (Western blot)” value in data set [1] was “efficient protein knock down”. The Matrigel invasion entry in [2] and in [3] was “significantly inhibited” in each case. The agar cloning efficiency entry in [4] and in data set [5] was “significantly inhibited” throughout.

For the molecule `Nc1ncnc2c1nc(Br)n2[C@@H]1O[C@@H]2COP(=O)(O)O[C@H]2[C@H]1O` [Bromo-cyclicAMP], the “AEG-1 promoter activity (luciferase)” value in [6] is “dose responsive stimulation”.

Regarding TNFα, the “decrease of EAAT2 promoter activity” value in data set [7] was ~2.5 fold. In addition, in data set [8], the “AEG-1 expression over control” value is recorded as 3 fold.

On to “Tat gene product: HIV-Tat gene product expressed from a co-transfected plasmid expression vector”, for which the “stimulation of AEG-1 promoter activity” value in data set [9] came to 1.5 fold.

For `C[S+]([O-])c1ccc(-c2nc(-c3ccncc3)c(-c3ccc(F)cc3)[nH]2)cc1` (centres unmarked) [SB 203580], the “AEG-1 promoter activity (luciferase)” value in data set [10] (5 μM) and in data set [11] (5 μM) was “inhibition of promoter activity was observed” throughout.

Turning to “gp120: HIV-1 gp120 envelope protein used to treat astrocytes”, the “reduction in glutamate uptake” value in [12] is given as ~60%. Further, the “decrease of EAAT2 promoter activity” value in data set [7] is ~2.5 fold. Besides, the “AEG-1 expression over control” value in data set [8] is listed as 3 fold.

With `COc1cccc(-c2cc(=O)c3ccccc3o2)c1N` [PD 98059], the “AEG-1 promoter activity (luciferase)” value in [10] (20 and 50 μM) is “dose dependent inhibition”; in data set [11] (20 and 50 μM), “dose dependent inhibition”. Also, in data set [13], the “AEG-1 promoter activity, responsiveness to inhibitor” value is “not responsive”.
